Measurements: patent US11634404B2 (priority 2016, dated 2023)

What was measured:
D3 DAR = D3 DAR (Homo sapiens (Human), UniProt P35462); type: cell-based; conditions: β-arrestin recruitment, agonist
D2 DAR [1] = biological target: T1, D2 DAR (Homo sapiens (Human), UniProt P14416); type: cell-based; conditions: β-arrestin recruitment, agonist; 'curve' = wrapped cell 'curve interrupted'
D3R = D3R (Homo sapiens (Human), UniProt P35462); experiment: ERK1/2 Phosphorylation assay; type: cell-based; conditions: orthogonal assay
D2 DAR [2] = biological target: T1, D2 DAR; experiment: [35S]GTPγS binding assay; type: biochemical; conditions: % maximum dopamine response
Source text: A [^35S]GTPγS (Perkin Elmer NEG030H) binding assay was utilized as described in the protocol below (Table 7).

panel of 168 GPCRs [3] = biological target: panel of 168 GPCRs (Homo sapiens, UniProt P08173); type: cell-based; conditions: GPCR CHRM4; agonist, 10 μM
panel of 168 GPCRs [4] = biological target: panel of 168 GPCRs (Homo sapiens, UniProt P18089); type: cell-based; conditions: GPCR ADRA2B; agonist, 10 μM
panel of 168 GPCRs [5] = biological target: panel of 168 GPCRs (Homo sapiens, UniProt P25021); type: cell-based; conditions: GPCR HRH2; agonist, 10 μM
panel of 168 GPCRs [6] = biological target: panel of 168 GPCRs (Homo sapiens, UniProt P30872); type: cell-based; conditions: GPCR SSTR1; agonist, 10 μM
panel of 168 GPCRs [7] = biological target: panel of 168 GPCRs (Homo sapiens, UniProt P30874); type: cell-based; conditions: GPCR SSTR2; agonist, 10 μM
panel of 168 GPCRs [8] = biological target: panel of 168 GPCRs (Homo sapiens, UniProt P32239); type: cell-based; conditions: GPCR CCKBR; agonist, 10 μM
panel of 168 GPCRs [9] = biological target: panel of 168 GPCRs (Homo sapiens, UniProt P34972); type: cell-based; conditions: GPCR CNR2; agonist, 10 μM
panel of 168 GPCRs [10] = biological target: panel of 168 GPCRs (Homo sapiens, UniProt P35346); type: cell-based; conditions: GPCR SSTR5; agonist, 10 μM
panel of 168 GPCRs [11] = biological target: panel of 168 GPCRs (Homo sapiens, UniProt P41597); type: cell-based; conditions: GPCR CCR2; agonist, 10 μM
panel of 168 GPCRs [12] = biological target: panel of 168 GPCRs (Homo sapiens, UniProt P43115); type: cell-based; conditions: GPCR PTGER3; agonist, 10 μM
panel of 168 GPCRs [13] = biological target: panel of 168 GPCRs (Homo sapiens, UniProt P49683); type: cell-based; conditions: GPCR PRLHR; agonist, 10 μM
panel of 168 GPCRs [14] = biological target: panel of 168 GPCRs (Homo sapiens, UniProt Q99500); type: cell-based; conditions: GPCR EDG3; agonist, 10 μM
5HT2B receptor = 5HT2B receptor (Homo sapiens (Human), UniProt P41595); experiment: HTRF IP1 accumulation assay (Eurofins Cerep); type: cell-based
D3R Y198A [15] = biological target: T2, D3R Y198A (Homo sapiens (Human), UniProt P35462, Y198A); experiment: arrestin BRET assay, mutagenesis; type: cell-based
Experimental: (§1) BRET arrestin recruitment assay. As an orthogonal test using an unrelated assay of D3R-mediated β-arrestin recruitment, an arrestin BRET assay was conducted.
(§2) […]. […] […]. The Y365A mutation had more dramatic effects. […].

D3R Y365A [16] = biological target: T3, D3R Y365A (Homo sapiens (Human), UniProt P35462, Y365A); experiment: arrestin BRET assay, mutagenesis; type: cell-based; conditions: Y365A mutation
Experimental: as §1, §2

D3R Y198A [17] = biological target: T2, D3R Y198A; experiment: Go BRET assay, mutagenesis; type: cell-based
Source text: (§3) Go BRET activation assay. […].
as §2

D3R Y365A [18] = biological target: T3, D3R Y365A; experiment: Go BRET assay, mutagenesis; type: cell-based
Source text: as §3, §2

[19] = test system: terminally differentiated SHSY5Y cells; experiment: Neuroprotection assay against 6-hydroxydopamine; type: cell-based; conditions: 24 h pretreatment, 10 μM 6-hydroxydopamine
Experimental: […]. Protection against total neurite length decrease was measured 24 h later. […].

[20] = Cytotoxicity screening panel, High Content Screening; type: cell-based; conditions: human, HepG2 cells; Mitochondrial Membrane Potential, response direction ↓
Experimental: (§4) HepG2 cells were plated on 384-well tissue culture treated black walled clear bottomed polystyrene plates. The cells were dosed with test compound at a range of concentrations. At the end of the incubation period, the cells were loaded with the relevant dye/antibody for each cell health marker. The plates were then scanned using an automated fluorescent cellular imager, ArrayScan® (Thermo Scientific Cellomics). Cytotoxicity was assessed using a multi-parametric approach using High Content Screening (HCS). The following parameters were screened.
(§5) Nuclear size: An increase in nuclear area can indicate necrosis or G2 cell cycle arrest and a decrease can indicate apoptosis.
(§6) DNA structure: An increase in DNA structure can indicate chromosomal instability and DNA fragmentation.
(§7) Cell membrane permeability: An increase in cell membrane permeability is a general indicator of cell death.
(§8) Mitochondrial mass: A decrease in mitochondrial mass indicates loss of total mitochondria and an increase implies mitochondrial swelling or an adaptive response to cellular energy demands.
(§9) Mitochondrial membrane potential (Δψm): A decrease indicates a loss of mitochondrial membrane potential and mitochondrial toxicity, as well as a potential role in apoptosis signaling, an increase in mitochondrial membrane potential indicates an adaptive response to cellular energy demands.
(§10) Cytochrome c: An increase in cytochrome c release is one of the hallmarks of the apoptosis cascade.

HepG2 cells = experiment: as above; type: cell-based
Experimental: as §4, §5, §6, §7, §8, §9, §10

[21] = Cell Membrane Permeability, response direction ↑
[22] = Cytochrome c, response direction ↑
[23] = DNA Structure, response direction ↑
[24] = Mitochondrial Mass, response direction ↑
[25] = Nuclear Size, response direction ↑
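For β-Arrestin Recruitment activity in this document: recruitment activity reported in % for each GPCR in the panel.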

T3 sequence (P35462 whole entry Y365A): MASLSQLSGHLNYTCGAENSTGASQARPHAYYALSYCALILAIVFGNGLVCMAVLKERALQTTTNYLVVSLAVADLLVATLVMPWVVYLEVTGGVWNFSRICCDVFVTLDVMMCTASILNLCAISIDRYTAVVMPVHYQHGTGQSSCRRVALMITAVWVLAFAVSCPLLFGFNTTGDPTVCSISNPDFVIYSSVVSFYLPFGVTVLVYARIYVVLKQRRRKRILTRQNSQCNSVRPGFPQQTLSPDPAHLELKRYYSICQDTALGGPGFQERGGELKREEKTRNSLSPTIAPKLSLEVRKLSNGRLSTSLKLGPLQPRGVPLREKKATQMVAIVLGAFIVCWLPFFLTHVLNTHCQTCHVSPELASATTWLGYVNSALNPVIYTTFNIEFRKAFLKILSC
T2 sequence (P35462 whole entry Y198A): as the sequence (P35462 whole entry Y365A) above, with Y198A, A365Y counted along it
5HT2B receptor, sequence (P41595 whole entry): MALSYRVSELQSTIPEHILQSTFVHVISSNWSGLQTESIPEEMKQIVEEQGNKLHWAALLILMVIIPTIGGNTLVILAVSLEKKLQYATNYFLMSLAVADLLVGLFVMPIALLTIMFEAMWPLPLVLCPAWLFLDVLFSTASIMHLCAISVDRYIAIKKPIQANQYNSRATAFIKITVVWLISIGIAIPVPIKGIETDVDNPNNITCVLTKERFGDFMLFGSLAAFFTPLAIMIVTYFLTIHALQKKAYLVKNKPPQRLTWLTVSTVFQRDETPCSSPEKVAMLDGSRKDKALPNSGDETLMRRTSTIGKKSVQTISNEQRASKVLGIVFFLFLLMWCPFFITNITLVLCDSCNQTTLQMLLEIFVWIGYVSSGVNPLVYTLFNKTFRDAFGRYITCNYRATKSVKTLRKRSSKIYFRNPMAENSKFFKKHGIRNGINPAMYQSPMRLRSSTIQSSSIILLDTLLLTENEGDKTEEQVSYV
T1 sequence (P14416 whole entry): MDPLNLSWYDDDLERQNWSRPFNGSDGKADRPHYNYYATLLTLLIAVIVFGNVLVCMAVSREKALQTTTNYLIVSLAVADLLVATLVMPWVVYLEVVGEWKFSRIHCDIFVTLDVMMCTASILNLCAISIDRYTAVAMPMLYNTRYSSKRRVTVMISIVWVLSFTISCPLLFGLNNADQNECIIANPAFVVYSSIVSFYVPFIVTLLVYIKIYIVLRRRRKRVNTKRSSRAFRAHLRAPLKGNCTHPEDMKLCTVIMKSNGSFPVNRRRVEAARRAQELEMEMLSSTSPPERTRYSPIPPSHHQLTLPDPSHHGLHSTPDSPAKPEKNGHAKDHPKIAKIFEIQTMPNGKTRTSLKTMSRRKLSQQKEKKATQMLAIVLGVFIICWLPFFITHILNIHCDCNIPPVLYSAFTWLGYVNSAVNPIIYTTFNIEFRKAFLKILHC
D3 DAR, sequence (P35462 whole entry): as the sequence (P35462 whole entry Y365A) above, with A365Y counted along it
D3R, sequence (P35462 whole entry): as the sequence (P35462 whole entry Y365A) above, with A365Y counted along it

## COc1ccc(OCCN2CCN(C(=O)c3cc4ccccc4[nH]3)CC2)cc1 [Compound 1, (1H-indol-2-yl)(4-(2-(4-methoxyphenoxy)ethyl)piperazin-1-yl)methanone]
D3 DAR
  EC50: 0.036 µM
D2 DAR [1]
  D2 Emax: Curve
D3R
  agonist activity, ERK phosphorylation: potent and fully efficacious D3R-selective agonist
D2 DAR [2]
  activation of the D2 DAR, [35S]GTPγS binding: not to activate the D2 DAR
Panel of 168 GPCRs [3]
  β-Arrestin Recruitment activity: 3%
Panel of 168 GPCRs [4]
  β-Arrestin Recruitment activity: −4%
Panel of 168 GPCRs [5]
  β-Arrestin Recruitment activity: 3%
Panel of 168 GPCRs [6]
  β-Arrestin Recruitment activity: 0%
Panel of 168 GPCRs [7]
  β-Arrestin Recruitment activity: 0%
Panel of 168 GPCRs [8]
  β-Arrestin Recruitment activity: 4%
Panel of 168 GPCRs [9]
  β-Arrestin Recruitment activity: −14%
Panel of 168 GPCRs [10]
  β-Arrestin Recruitment activity: 3%
Panel of 168 GPCRs [11]
  β-Arrestin Recruitment activity: 4%
Panel of 168 GPCRs [12]
  β-Arrestin Recruitment activity: 3%
Panel of 168 GPCRs [13]
  β-Arrestin Recruitment activity: 4%
Panel of 168 GPCRs [14]
  β-Arrestin Recruitment activity: 4%
5HT2B receptor; read-out: inhibition of response elicited by serotonin
  inhibition at 10 µM: 80%
5HT2B receptor; single high concentration of 10 μM
  agonist activity, IP1 accumulation: No agonist activity was found
D3R Y198A [15]
  effect of mutation on potency: minimal effects on the potency
D3R Y198A [15]; Y198A mutation
  signaling efficacy, % that of dopamine: 36%
D3R Y365A [16]
  efficacy, % that of dopamine: 210%
  potency reduction: 440 fold
D3R Y198A [17]
  effect of mutation on potency: minimal effects on the potency
D3R Y198A [17]; Y198A mutation
  signaling efficacy, % that of dopamine: 64%
D3R Y365A [18]
  effect of mutation on efficacy: appeared to be unaffected
D3R Y365A [18]; Y365A mutation
  potency reduction: 25,000 fold
[19]
  neuroprotection, dose-response: clear concentration dependent effect
[19]; compared with pramipexole
  neuroprotection, protection against total neurite length decrease: neuroprotection superior to pramipexole
[20]
  AC50: > 50 µM
HepG2 cells; [21]
  AC50: > 50 µM
  MEC: 8.58 µM
HepG2 cells; [22]
  AC50: > 50 µM
  MEC: 6.03 µM
HepG2 cells; [23]
  AC50: > 50 µM
  MEC: 13.9 µM
HepG2 cells; [24]
  AC50: > 50 µM
  MEC: 11.9 µM
HepG2 cells; Mitochondrial Membrane Potential, response direction ↓
  MEC: 9.28 µM
HepG2 cells; [25]
  AC50: > 50 µM
  MEC: 12.0 µM
